This passage reports TGI results from PubChem BioAssay (NCI).

Each structure is given as a SMILES string.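 1) Cells in 96-well plates. 2) Compound, 48 h, 5 concentrations. 3) Linear interpolation between surrounding doses. 4) Unreached endpoint = highest concentration. Definition used: TGI = concentration required for complete inhibition of growth.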

Among the test systems are ACHN renal; EKVX NSCLC; MCF7 breast; MOLT-4 leukemia; NCI-H226 lung; SF-295 CNS; SK-OV-3 ovarian; SR leukemia; SW-620 colon; TK-10 renal.
What all share (experiment): DTP human tumour cell line panel, 48 h

A word on the TGI: it is the concentration giving total growth inhibition. Turning to `C#CCOCC12C=CC(O1)C1C(=O)OCC12` (stereo unspecified), the TGI in the assay on ACHN renal, in the assay on EKVX NSCLC, in the assay with MCF7 breast, in the assay on MOLT-4 leukemia, with NCI-H226 lung and with SF-295 CNS was more than 100 µM in each case. Also, the TGI with SK-OV-3 ovarian, in the assay on SR leukemia, in the assay with SW-620 colon and with TK-10 renal was more than 100 µM in each case.

In the case of `CC1=NN(C(=O)CSc2nc3ccc(I)cc3c(=O)n2Cc2ccccc2)C(=O)C1`, the TGI is more than 100 µM in the assay on ACHN renal; 79.8 µM with EKVX NSCLC; 61.3 µM with MCF7 breast; 67.8 µM with MOLT-4 leukemia; more than 100 µM in the assay with NCI-H226 lung; 63.9 µM in the assay on SF-295 CNS. Also, the TGI in the assay on SK-OV-3 ovarian was 77 µM; in the assay with SR leukemia it was 74 µM; in the assay with SW-620 colon, more than 100 µM; in the assay on TK-10 renal it was more than 100 µM.

As for `CCN(c1cccc(NC(=S)Nc2ccccc2N(CC)c2cc(-c3ccccc3)no2)c1)c1cc(-c2ccccc2)no1`, the TGI in the assay on ACHN renal, in the assay on EKVX NSCLC, in the assay with MCF7 breast, in the assay on MOLT-4 leukemia, with NCI-H226 lung and in the assay with SF-295 CNS was more than 100 µM throughout. For the same molecule, the TGI in the assay on SK-OV-3 ovarian, in the assay with SR leukemia, with SW-620 colon and with TK-10 renal was more than 100 µM in each case.

`COc1ccc2c(c1)CCN1CCc3cc(OC)c(OC)cc3CC21` (stereo unspecified): the TGI is more than 100 µM with ACHN renal; more than 10 µM with EKVX NSCLC; more than 100 µM with MCF7 breast; more than 100 µM with MOLT-4 leukemia; more than 100 µM in the assay with NCI-H226 lung; more than 100 µM in the assay on SF-295 CNS. For the same molecule, the TGI in the assay on SK-OV-3 ovarian, in the assay with SR leukemia, with SW-620 colon and with TK-10 renal was more than 100 µM each time.

For the molecule `OC1(c2ccccc2)CSC2=Nc3ccccc3C3CCN1N23` (stereo unspecified), the TGI in the assay with ACHN renal was 54.1 µM; in the assay with EKVX NSCLC, 28.6 µM; with MCF7 breast it was 46 µM; in the assay with MOLT-4 leukemia it was 80.9 µM; with NCI-H226 lung, more than 100 µM; with SF-295 CNS, 33.8 µM. The TGI in the assay with SK-OV-3 ovarian is more than 100 µM; in the assay with SR leukemia, 55.4 µM; with SW-620 colon, 47.1 µM; in the assay with TK-10 renal, 43.2 µM.

On to `O=C(CC(=O)Nc1ccccc1)N/N=C/c1cc(N=Nc2ccc(Br)cc2)ccc1O`, for which the TGI was more than 10 µM in the assay on EKVX NSCLC; more than 10 µM in the assay on MCF7 breast; more than 10 µM with MOLT-4 leukemia; more than 10 µM in the assay on SK-OV-3 ovarian; 9.75 µM in the assay on SR leukemia; more than 10 µM with SW-620 colon. Moreover, the TGI in the assay on TK-10 renal was more than 10 µM.

On to `COc1ccc(N=C2C(=Nc3ccc(OC)cc3)N(c3ccccc3)C(=S)N2N=C=C2Sc3ccccc3N2C)cc1`, for which the TGI with ACHN renal, in the assay with EKVX NSCLC, in the assay with MCF7 breast, in the assay with MOLT-4 leukemia, in the assay on NCI-H226 lung and in the assay on SF-295 CNS was more than 100 µM throughout. In addition, the TGI with SK-OV-3 ovarian, with SR leukemia, in the assay on SW-620 colon and in the assay with TK-10 renal was more than 100 µM each time.

Turning to `Cc1cc(O)c(C(C)C)cc1C1(c2cc(C(C)C)c(O)cc2C)OC(=O)c2ccccc21`, the TGI was 8.99 µM in the assay on ACHN renal; 9.25 µM with EKVX NSCLC; 3.6 µM in the assay on MCF7 breast; 3.38 µM in the assay on MOLT-4 leukemia; 6.3 µM in the assay on NCI-H226 lung; 3.69 µM in the assay with SF-295 CNS. Also, the TGI with SK-OV-3 ovarian was more than 33.3 µM; in the assay with SR leukemia, 4.02 µM; in the assay on SW-620 colon, 4.57 µM; with TK-10 renal it was 11.1 µM.

Consider `Nc1ccc(CCN2CCN(CCCc3ccccc3)CC2)cc1`, for which the TGI with ACHN renal, in the assay on EKVX NSCLC, in the assay with MCF7 breast, with MOLT-4 leukemia, in the assay on NCI-H226 lung and in the assay on SF-295 CNS was more than 100 µM each time. Moreover, the concentration for total growth inhibition (TGI) in the assay with SK-OV-3 ovarian, in the assay with SR leukemia, in the assay on SW-620 colon and in the assay with TK-10 renal was more than 100 µM throughout.

As to `C/C(=C/CC[C@]1(CO)CC[C@]2(CO)[C@H](CC[C@@H]3[C@@]4(C)CC[C@H](OC5OCC(O)C(O)C5OC5OC(CO)C(O)C(O)C5O)C(C)(C)[C@@H]4CC[C@]32C)[C@H]1O)CO` (stereo partly specified), the TGI with ACHN renal, in the assay on EKVX NSCLC, with MCF7 breast, with MOLT-4 leukemia, with NCI-H226 lung and in the assay with SF-295 CNS was more than 100 µM throughout. In addition, the TGI in the assay on SK-OV-3 ovarian, with SR leukemia, with SW-620 colon and in the assay on TK-10 renal was more than 100 µM each time.

With `O=C(O)CNC(=O)c1c2ccccc2nc2ccccc12`, the TGI in the assay with ACHN renal, in the assay with EKVX NSCLC, in the assay with MCF7 breast, with MOLT-4 leukemia, with NCI-H226 lung and in the assay with SF-295 CNS was more than 100 µM throughout. In addition, the TGI in the assay with SK-OV-3 ovarian, in the assay with SR leukemia, in the assay with SW-620 colon and with TK-10 renal was more than 100 µM throughout.

On to `Brc1c(C#CCC2CCCCC2)ccc(C#CCC2CCCCC2)c1Br`, for which the TGI in the assay on ACHN renal, in the assay with EKVX NSCLC, in the assay on MCF7 breast, in the assay with MOLT-4 leukemia, with NCI-H226 lung and in the assay on SF-295 CNS was more than 100 µM each time. Further, the TGI in the assay on SR leukemia, in the assay on SW-620 colon and with TK-10 renal was more than 100 µM throughout.

Consider `C=CCOC(=O)C1C2OC3(C(C(=O)OC)=C2C(=O)OC)c2ccccc2CCC13` (stereo unspecified), for which the TGI with ACHN renal, in the assay on EKVX NSCLC, in the assay with MCF7 breast, with MOLT-4 leukemia, with NCI-H226 lung and with SF-295 CNS was more than 10 µM in each case. For the same molecule, the TGI with SK-OV-3 ovarian, with SR leukemia, in the assay with SW-620 colon and with TK-10 renal was more than 10 µM in each case.
